Reference: patent publication US5714615A (priority 1994, dated 1998)
Entries after “also recorded” stand apart in the source; their conditions may differ.

How the values were obtained:
nicotinic receptor = nicotinic receptor (Rattus norvegicus, UniProt P09483+P12390); experiment: biochemical; format: binding
electric eel AChE = electric eel AChE (Electrophorus electricus, UniProt O42275); format: biochemical
human erythrocyte AChE = human erythrocyte AChE (Homo sapiens, UniProt P22303); format: biochemical
GA = system: GA; set-up: species or system Male ICR mice; conditions: mouse, in vivo
[1] = mouse, in vivo
AChE = format: biochemical, electric eel and human
DMTS performance = conditions: monkey, in vivo; cited from earlier work
[2] = target: T1, electric eel acetylcholinesterase (Electrophorus electricus, UniProt O42275); format: biochemical; conditions: 0.1m phosphate buffer
[3] = target: human erythrocyte acetylcholinesterase (Homo sapiens, UniProt P22303); format: biochemical; conditions: erythrocyte ache
[4] = target: T1, electric eel acetylcholinesterase; conditions: cited from earlier work
in vivo = conditions: mouse, po

T1 sequence (O42275 24-633): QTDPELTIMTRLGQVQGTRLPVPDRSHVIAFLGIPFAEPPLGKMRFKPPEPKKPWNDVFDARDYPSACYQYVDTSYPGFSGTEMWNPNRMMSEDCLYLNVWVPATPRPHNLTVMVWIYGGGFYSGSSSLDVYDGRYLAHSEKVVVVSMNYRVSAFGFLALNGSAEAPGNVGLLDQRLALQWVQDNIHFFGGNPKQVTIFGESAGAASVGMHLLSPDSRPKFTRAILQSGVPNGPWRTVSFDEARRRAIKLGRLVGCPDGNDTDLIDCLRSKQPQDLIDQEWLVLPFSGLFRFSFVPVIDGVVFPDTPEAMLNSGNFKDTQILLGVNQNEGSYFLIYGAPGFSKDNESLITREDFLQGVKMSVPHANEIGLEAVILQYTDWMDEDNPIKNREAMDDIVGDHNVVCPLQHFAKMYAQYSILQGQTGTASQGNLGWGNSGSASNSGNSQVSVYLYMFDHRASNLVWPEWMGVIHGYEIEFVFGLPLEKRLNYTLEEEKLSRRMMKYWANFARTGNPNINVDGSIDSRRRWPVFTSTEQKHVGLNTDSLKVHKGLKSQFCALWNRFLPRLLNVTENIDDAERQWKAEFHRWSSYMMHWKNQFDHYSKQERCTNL
Chain of nicotinic receptor (P12390 25-500): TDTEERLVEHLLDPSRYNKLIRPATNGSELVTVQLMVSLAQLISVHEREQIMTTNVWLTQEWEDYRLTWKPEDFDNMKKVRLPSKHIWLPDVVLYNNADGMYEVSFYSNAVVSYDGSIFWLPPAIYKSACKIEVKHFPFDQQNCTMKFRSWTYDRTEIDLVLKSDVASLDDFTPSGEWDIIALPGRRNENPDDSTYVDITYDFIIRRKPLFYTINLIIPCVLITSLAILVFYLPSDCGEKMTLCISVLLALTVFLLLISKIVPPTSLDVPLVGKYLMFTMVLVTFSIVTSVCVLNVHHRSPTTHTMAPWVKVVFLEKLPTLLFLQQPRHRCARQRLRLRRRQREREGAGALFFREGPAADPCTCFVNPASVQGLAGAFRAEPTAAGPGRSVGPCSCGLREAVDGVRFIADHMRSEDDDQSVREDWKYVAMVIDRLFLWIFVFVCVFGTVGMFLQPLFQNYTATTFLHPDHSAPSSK
Chain of nicotinic receptor (P09483 31-630): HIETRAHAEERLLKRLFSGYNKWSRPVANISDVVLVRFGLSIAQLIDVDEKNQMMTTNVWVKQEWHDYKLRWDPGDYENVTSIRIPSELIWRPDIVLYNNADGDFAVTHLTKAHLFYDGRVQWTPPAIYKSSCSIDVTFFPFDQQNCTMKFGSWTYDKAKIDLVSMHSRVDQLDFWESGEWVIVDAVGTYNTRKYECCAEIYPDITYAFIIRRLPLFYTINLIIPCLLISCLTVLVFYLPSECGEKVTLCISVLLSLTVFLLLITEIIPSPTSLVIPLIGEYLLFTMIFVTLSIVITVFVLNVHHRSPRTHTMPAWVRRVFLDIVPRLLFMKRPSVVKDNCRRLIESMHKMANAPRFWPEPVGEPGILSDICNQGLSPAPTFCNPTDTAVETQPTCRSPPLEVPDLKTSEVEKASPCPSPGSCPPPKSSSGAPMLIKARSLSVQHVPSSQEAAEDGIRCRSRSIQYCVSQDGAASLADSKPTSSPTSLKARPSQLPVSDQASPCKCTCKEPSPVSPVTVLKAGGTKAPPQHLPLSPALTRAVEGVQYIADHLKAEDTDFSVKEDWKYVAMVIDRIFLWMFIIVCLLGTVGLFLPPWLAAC
Chain of electric eel AChE (O42275 24-633): as the sequence (O42275 24-633) above
Chain of human erythrocyte AChE (P22303-2 with tags, fused parts or gaps limits assumed): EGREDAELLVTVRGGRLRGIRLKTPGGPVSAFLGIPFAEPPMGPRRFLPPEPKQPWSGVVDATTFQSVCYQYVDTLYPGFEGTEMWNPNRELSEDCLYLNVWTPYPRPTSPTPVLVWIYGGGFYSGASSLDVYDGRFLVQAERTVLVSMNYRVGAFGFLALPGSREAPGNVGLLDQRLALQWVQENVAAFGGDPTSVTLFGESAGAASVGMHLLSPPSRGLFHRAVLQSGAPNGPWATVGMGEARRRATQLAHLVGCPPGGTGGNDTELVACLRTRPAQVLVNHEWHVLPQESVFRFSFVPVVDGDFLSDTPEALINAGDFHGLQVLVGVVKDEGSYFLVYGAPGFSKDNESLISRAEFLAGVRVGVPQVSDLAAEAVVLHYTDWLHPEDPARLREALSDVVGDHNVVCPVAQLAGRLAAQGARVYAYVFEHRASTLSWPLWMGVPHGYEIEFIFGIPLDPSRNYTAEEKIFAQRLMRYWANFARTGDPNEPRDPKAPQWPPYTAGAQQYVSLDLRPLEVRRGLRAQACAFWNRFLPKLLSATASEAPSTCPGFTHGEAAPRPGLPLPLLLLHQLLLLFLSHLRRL
Chain of human erythrocyte acetylcholinesterase (P22303-2 with tags, fused parts or gaps limits assumed): as above

Compound: C[N+](C)(C)CCOC(N)=O [Carbachol]
- IC50 (nicotinic receptor): 699 nM
- potency less than nicotine (nicotinic receptor): about 18 fold

Compound: C[n+]1cccc(O)c1C=NO [Compound 1f]
- inhibition of electric eel AChE (electric eel AChE): did not inhibit either enzyme at concentrations up to 1 mM
- inhibition of human AChE (human erythrocyte AChE): did not inhibit either enzyme at concentrations up to 1 mM
- % survival (GA): 0%
- comparative drug toxicity [1]: small increase in toxicity

Compound: C[n+]1cccc(O)c1C=NNC(=O)Nc1ccccc1.[Cl-] [Compound 3b, 3-Hydroxy-1-methyl-2-[[(N-phenylaminocarbonyl)hydrazono]methyl] pyridinium chloride]
- mode of inhibition of AChE (AChE): mixed-type inhibition; also recorded: noncompetitive kinetics

Compound: Clc1cccc(Cl)c1N=C1NCCN1 [Clonidine, clonidine]
- delay intervals at which DMTS is improved (DMTS performance): improves DMTS performance to the greatest extent at medium delays
- duration of DMTS improvement after administration (DMTS performance): at least 24 hr

Compound: CNC(=O)Oc1ccc2c(c1)[C@]1(C)CCN(C)[C@@H]1N2C [Physostigmine]
- kobs/[I] (eel) [2]: 140000 M⁻¹ s⁻¹
- kobs/[I] (human) [3]: 19000 M⁻¹ s⁻¹
- binding to nicotinic receptors (nicotinic receptor): no selective binding to nicotinic receptors, even at mM concentrations
- kobs/[I] (literature value, footnote to eel column) [4]: 18500 M⁻¹ s⁻¹
- delay intervals at which DMTS is improved (DMTS performance): acts more evenly across short, medium and long delays
- duration of DMTS response (DMTS performance): evokes responses only on the day of administration
- improvement in DMTS performance (DMTS performance): 5-10 % points

Compound: CN1CCCC1c1cccnc1 (stereo not shown) [Nicotine]
- improvement in DMTS performance (DMTS performance): 5-10 % points

Compound: C[n+]1ccccc1C=NNC(=O)C[n+]1ccccc1 [Compound 5b, 2-(1-Methyl-2-pyridinemethylene)-1-[2-(1-pyridinium)acetyl] hydrazine dichloride]
- mode of inhibition of AChE (AChE): mixed-type inhibition; also recorded: At concentrations up to 75 μM, 5b acts as a noncompetitive inhibitor; also recorded: at higher concentrations, 5b is an uncompetitive inhibitor

Compound: C[n+]1ccccc1C=NOCc1ccccc1 [Compound 1a, O-Benzyl-N-(1-methyl-2-pyridinemethylene) hydroxylamine chloride]
- mode of inhibition of AChE (AChE): pure competitive inhibition
- comparative drug toxicity [1]: 1a>1b

Compound: COc1ccc(CON=Cc2c(O)ccc[n+]2C)cc1 [Compound 1e, O-(p-Methoxybenzyl)-N-(3-hydroxy-1-methyl-2-pyridinemethylene) hydroxylamine chloride]
- mode of inhibition of AChE (AChE): pure competitive inhibition

Compound: CON=Cc1c(O)ccc[n+]1C [Compound 1c, O-Methyl-N-(3-hydroxy-1-methyl-2-pyridinemethylene) hydroxylamine chloride]
- inhibition of electric eel AChE (electric eel AChE): did not inhibit either enzyme at concentrations up to 1 mM
- inhibition of human AChE (human erythrocyte AChE): did not inhibit either enzyme at concentrations up to 1 mM
- % survival (GA): 0%
- LD50 at 24 h (in vivo): > 3200 µmol/kg

Compound: C[n+]1cc(O)ccc1C=NO [Compound 1g]
- % survival (GA): 0%
- comparative drug toxicity [1]: small increase in toxicity

Compound: C[n+]1cccc(O)c1C=NOCc1ccccc1 [Compound 1b, O-Benzyl-N-(3-hydroxy-1-methyl-2-pyridinemethylene) hydroxylamine chloride]
- mode of inhibition of AChE (AChE): pure competitive inhibition
- comparative drug toxicity [1]: 1b>1c

Compound: C[n+]1cccc(O)c1C=NOCc1ccc(Cl)cc1 [Compound 1d, O-(p-Chlorobenzyl)-N-(3-hydroxy-1-methyl-2-pyridinemethylene) hydroxylamine chloride]
- mode of inhibition of AChE (AChE): pure competitive inhibition

Compound: CN(C)C(=O)Oc1ccc[n+](C)c1 [Pyridostigmine, pyridostigmine]
- kobs/[I] (literature value, footnote to eel column) [4]: 843 M⁻¹ s⁻¹
